Values quoted from earlier work, collected in patent publication US6375930B2, “Membrane incorporation of texaphyrins” (Board of Regents, The University of Texas System, priority 1996, dated 2002).

Experiments:
[1] = require hydrophobic vehicles for administration
[2] = Levy, Semin. Oncol. 1994

Row | solubility in aqueous solutions [1] | duration of cutaneous photosensitivity [2] | Substance
1 | insoluble | a few days | benzoporphyrin derivative [BPD verteporfin]
2 | – | up to 6 weeks | porfimer sodium
3 | insoluble | – | tin purpurin
